Data taken from patent US4259235A, “Tricyclic nitrogenous compounds having string plant growth regulating properties” (BASF Aktiengesellschaft, priority 1977, dated 1981).

Tests used:
spring barley [1] = assay: Growth height of spring barley, leaf treatment, Example 10; type: in vivo, spring barley ("Union" variety)
Description: (§1) Spring wheat ("Opal" variety) and spring barley ("Union" variety) were grown under greenhouse conditions in plastic dishes 11.5 cm in diameter, in a peat substrate provided with sufficient nutrients. For the soil (preemergence) treatment, the active ingredients were poured, at two application rates, as aqueous formulations onto the surface of the substrate after sowing.
(§2) Leaf treatment was effected by spraying the plants at a growth height of 10 cm with aqueous formulations of the active ingredients at two application rates.
(§3) The plant height was measured at the end of the experiment. The figures obtained show the shortening effect of the active ingredients under investigation. The prior art compound β-chloroethylphosphonic acid (Ethephon, German Printed Application DAS No. 1,667,968) was used for comparison purposes.

spring barley [2] = assay: Growth height of spring barley, soil treatment, Example 10; type: in vivo, spring barley ("Union" variety)
Description: as §1, §3

spring wheat [3] = assay: Growth height of spring wheat, soil treatment, Example 10; type: in vivo, spring wheat ("Opal" variety)
Description: as §1, §3

spring wheat [4] = assay: Growth height of spring wheat, leaf treatment, Example 10; type: in vivo, spring wheat ("Opal" variety)
Description: as §1, §2, §3

Structure (SMILES) | Plant height (spring wheat [3]; 3 kg/ha) | Plant height, % of untreated control (spring wheat [3]; 3 kg/ha) | Plant height (spring wheat [3]; 12 kg/ha) | Plant height, % of untreated control (spring wheat [3]; 12 kg/ha) | Plant height (spring wheat [4]; 1.5 kg/ha) | Plant height, % of untreated control (spring wheat [4]; 1.5 kg/ha) | Plant height (spring wheat [4]; 6.0 kg/ha) | Plant height, % of untreated control (spring wheat [4]; 6.0 kg/ha) | also measured
O=P(O)(O)CCCl [Ethephon, β-chloroethylphosphonic acid, reference compound] | 29.0 cm | 90.6% | 25.0 cm | 78.1% | 30.0 cm | 91.5% | 25.0 cm | 76.2% | Plant height (spring barley [1]; 1.5 kg/ha): 27.0 cm; Plant height, % of untreated control (spring barley [1]; 1.5 kg/ha): 96.4%; Plant height (spring barley [1]; 6.0 kg/ha): 24.5 cm; Plant height, % of untreated control (spring barley [1]; 6.0 kg/ha): 87.5%; Plant height (spring barley [2]; 3 kg/ha): 32.0 cm; Plant height, % of untreated control (spring barley [2]; 3 kg/ha): 93.3%; Plant height (spring barley [2]; 12 kg/ha): 27.5 cm; Plant height, % of untreated control (spring barley [2]; 12 kg/ha): 80.2%
Clc1ccc(C2N=NC3C4CC(C5N=NC45)C23)cc1 (centres unmarked) [drawing 392] | 17.0 cm | 53.1% | 14.0 cm | 43.8% | – | – | – | – | –
Brc1ccc(C2=NOC3C4CC(C5N=NC45)C23)cc1 (centres unmarked) [drawing 393] | 26.5 cm | 82.8% | 25.5 cm | 79.7% | – | – | – | – | –
O=[N+]([O-])c1ccc(C2=NOC3C4CC(C5N=NC45)C23)cc1 (centres unmarked) [drawing 394] | 25.5 cm | 79.7% | 22.0 cm | 68.8% | – | – | – | – | –
Cc1ccc(C2=NOC3C4CC(C5N=NC45)C23)cc1 (centres unmarked) [drawing 395] | 23.5 cm | 73.4% | 22.0 cm | 68.8% | – | – | – | – | –
COc1ccc(C2=NOC3C4CC(C5N=NC45)C23)cc1 (centres unmarked) [drawing 396] | 27.0 cm | 84.4% | 24.5 cm | 76.6% | – | – | – | – | –
Clc1ccc(C2=NOC3C4CC(C5N=NC45)C23)cc1 (centres unmarked) [drawing 397] | 16.0 cm | 50.0% | 15.0 cm | 46.9% | – | – | – | – | –
Clc1ccc(C2N=NC3C4CC(C5N=NC45)C23)cc1 (centres unmarked) [drawing 398] | – | – | – | – | 23.5 cm | 71.6% | 22.0 cm | 67.1% | –
Brc1ccc(C2=NOC3C4CC(C5N=NC45)C23)cc1 (centres unmarked) [drawing 399] | – | – | – | – | 29.0 cm | 88.4% | 27.5 cm | 83.8% | –
O=[N+]([O-])c1ccc(C2=NOC3C4CC(C5N=NC45)C23)cc1 (centres unmarked) [drawing 400] | – | – | – | – | 29.0 cm | 88.4% | 27.0 cm | 82.3% | –
Cc1ccc(C2=NOC3C4CC(C5N=NC45)C23)cc1 (centres unmarked) [drawing 401] | – | – | – | – | 29.5 cm | 89.9% | 27.5 cm | 83.3% | –
Clc1ccc(C2=NOC3C4CC(C5N=NC45)C23)cc1 (centres unmarked) [drawing 402] | – | – | – | – | 29.0 cm | 88.4% | 27.0 cm | 82.3% | –
FC(F)(F)c1cccc(NC2C(I)C3CC2C2N=NC32)c1 (centres unmarked) [drawing 403] | – | – | – | – | 27.5 cm | 83.3% | 25.5 cm | 77.7% | –
Clc1ccc(C2N=NC3C4CC(C5N=NC45)C23)cc1 (centres unmarked) [drawing 404] | – | – | – | – | – | – | – | – | Plant height (spring barley [2]; 3 kg/ha): 22.0 cm; Plant height, % of untreated control (spring barley [2]; 3 kg/ha): 64.1%; Plant height (spring barley [2]; 12 kg/ha): 20.0 cm; Plant height, % of untreated control (spring barley [2]; 12 kg/ha): 58.3%
